Measured values: the kinase profiling compilation of Christmann-Franck et al. (2016)

Key:
Experiment in all cases: radiometric filter-binding kinase assay
CDK2 CCNA2 (human) = CDK2 CCNA2 (human) (UniProt P20248+P24941)
SIK2 (human) = SIK2 (human) (UniProt Q9H0K1)
CDK9 CCNT1 (human) = CDK9 CCNT1 (human) (UniProt P50750+O60563)
MARK3 (human) = MARK3 (human) (UniProt P27448)
MAPK9 (human) = MAPK9 (human) (UniProt P45984)
MARK1 (human) = MARK1 (human) (UniProt Q9P0L2)
RPS6KA5 KD1 KD2 (human) = RPS6KA5 KD1 KD2 (human) (UniProt O75582)
CaMK1 (human) = CaMK1 (human) (UniProt Q14012)
IGF1R (human) = IGF1R (human) (UniProt P08069)
DAPK1 (human) = DAPK1 (human) (UniProt P53355)
IKBKE (human) = IKBKE (human) (UniProt Q14164)
PIM3 (human) = PIM3 (human) (UniProt Q86V86)
SRPK1 (human) = SRPK1 (human) (UniProt Q96SB4)
MELK (human) = MELK (human) (UniProt Q14680)
MYLK (human) = MYLK (human) (UniProt Q15746)
TTBK2 (human) = TTBK2 (human) (UniProt Q6IQ55)
GCK (human) = GCK (human) (UniProt Q12851)
PAK7 (human) = PAK7 (human) (UniProt Q9P286); conditions: compound 1.0 µM
CSNK1G2 (human) = CSNK1G2 (human) (UniProt P78368)
SRC (human) = SRC (human) (UniProt P12931)
PRKCG (human) = PRKCG (human) (UniProt P05129)
MAPK14 (human) = MAPK14 (human) (UniProt Q16539)
NTRK1 (human) = NTRK1 (human) (UniProt P04629); conditions: compound 10.0 µM
[1] = biological target: PRKAA1 PRKAB2 PRKAG1 (human) (UniProt O43741+Q13131+P54619)
NEK2 (human) = NEK2 (human) (UniProt P51955)
FLT1 (human) = FLT1 (human) (UniProt P17948); conditions: compound 1.0 µM
DDR2 (human) = DDR2 (human) (UniProt Q16832)
PRKCA (human) = PRKCA (human) (UniProt P17252)
PRKCZ (human) = PRKCZ (human) (UniProt Q05513)
BTK (human) = BTK (human) (UniProt Q06187)
BTK (human), sequence (Q06187 whole entry, looked up): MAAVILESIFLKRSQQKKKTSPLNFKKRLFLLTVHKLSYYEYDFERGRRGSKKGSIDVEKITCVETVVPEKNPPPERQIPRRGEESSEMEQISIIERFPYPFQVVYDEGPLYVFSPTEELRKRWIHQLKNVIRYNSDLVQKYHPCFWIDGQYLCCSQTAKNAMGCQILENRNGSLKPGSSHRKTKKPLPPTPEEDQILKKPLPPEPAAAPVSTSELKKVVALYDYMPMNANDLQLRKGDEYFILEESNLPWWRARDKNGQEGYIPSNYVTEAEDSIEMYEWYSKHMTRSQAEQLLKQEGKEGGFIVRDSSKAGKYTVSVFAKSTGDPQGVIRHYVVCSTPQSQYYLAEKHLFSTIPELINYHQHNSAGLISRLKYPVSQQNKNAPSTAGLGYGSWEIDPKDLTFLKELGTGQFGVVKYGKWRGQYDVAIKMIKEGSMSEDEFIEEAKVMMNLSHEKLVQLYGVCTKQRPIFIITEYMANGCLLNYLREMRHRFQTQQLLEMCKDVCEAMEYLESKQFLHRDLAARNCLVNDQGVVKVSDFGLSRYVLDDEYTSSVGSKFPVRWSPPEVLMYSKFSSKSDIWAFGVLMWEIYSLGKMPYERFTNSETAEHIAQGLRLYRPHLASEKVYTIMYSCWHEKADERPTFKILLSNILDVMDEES

MAPK9 (human), sequence (P45984 whole entry, looked up): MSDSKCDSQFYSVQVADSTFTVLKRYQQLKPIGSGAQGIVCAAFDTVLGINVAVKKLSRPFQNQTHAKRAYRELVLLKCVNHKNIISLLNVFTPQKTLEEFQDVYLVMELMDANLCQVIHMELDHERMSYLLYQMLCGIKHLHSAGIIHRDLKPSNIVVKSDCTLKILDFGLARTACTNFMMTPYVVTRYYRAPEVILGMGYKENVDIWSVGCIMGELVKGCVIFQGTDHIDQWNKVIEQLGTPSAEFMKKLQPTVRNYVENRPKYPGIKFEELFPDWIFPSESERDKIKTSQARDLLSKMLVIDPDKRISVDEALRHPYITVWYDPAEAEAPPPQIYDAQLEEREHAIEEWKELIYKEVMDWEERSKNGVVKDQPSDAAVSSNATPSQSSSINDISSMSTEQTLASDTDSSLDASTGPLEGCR
MARK1 (human), sequence (Q9P0L2 whole entry, looked up): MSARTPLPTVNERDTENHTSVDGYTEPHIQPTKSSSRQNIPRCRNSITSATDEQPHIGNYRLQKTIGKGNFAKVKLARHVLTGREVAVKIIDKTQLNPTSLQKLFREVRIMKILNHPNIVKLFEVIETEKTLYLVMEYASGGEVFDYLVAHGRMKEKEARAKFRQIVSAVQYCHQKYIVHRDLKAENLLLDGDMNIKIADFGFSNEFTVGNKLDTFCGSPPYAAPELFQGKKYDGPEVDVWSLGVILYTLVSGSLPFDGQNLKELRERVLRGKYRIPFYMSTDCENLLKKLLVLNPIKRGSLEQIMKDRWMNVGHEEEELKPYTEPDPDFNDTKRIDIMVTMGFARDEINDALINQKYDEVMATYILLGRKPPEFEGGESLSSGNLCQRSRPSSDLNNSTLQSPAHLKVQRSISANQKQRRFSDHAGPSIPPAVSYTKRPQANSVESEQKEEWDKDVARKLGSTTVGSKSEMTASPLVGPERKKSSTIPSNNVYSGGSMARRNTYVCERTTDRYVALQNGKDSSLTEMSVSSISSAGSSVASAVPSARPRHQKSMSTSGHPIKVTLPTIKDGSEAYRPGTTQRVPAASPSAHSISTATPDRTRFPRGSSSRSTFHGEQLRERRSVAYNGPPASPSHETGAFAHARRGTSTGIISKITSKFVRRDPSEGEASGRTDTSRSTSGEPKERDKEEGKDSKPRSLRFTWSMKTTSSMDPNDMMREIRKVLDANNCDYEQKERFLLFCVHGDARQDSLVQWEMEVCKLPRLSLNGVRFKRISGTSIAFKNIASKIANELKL
SIK2 (human), sequence (Q9H0K1 whole entry, looked up): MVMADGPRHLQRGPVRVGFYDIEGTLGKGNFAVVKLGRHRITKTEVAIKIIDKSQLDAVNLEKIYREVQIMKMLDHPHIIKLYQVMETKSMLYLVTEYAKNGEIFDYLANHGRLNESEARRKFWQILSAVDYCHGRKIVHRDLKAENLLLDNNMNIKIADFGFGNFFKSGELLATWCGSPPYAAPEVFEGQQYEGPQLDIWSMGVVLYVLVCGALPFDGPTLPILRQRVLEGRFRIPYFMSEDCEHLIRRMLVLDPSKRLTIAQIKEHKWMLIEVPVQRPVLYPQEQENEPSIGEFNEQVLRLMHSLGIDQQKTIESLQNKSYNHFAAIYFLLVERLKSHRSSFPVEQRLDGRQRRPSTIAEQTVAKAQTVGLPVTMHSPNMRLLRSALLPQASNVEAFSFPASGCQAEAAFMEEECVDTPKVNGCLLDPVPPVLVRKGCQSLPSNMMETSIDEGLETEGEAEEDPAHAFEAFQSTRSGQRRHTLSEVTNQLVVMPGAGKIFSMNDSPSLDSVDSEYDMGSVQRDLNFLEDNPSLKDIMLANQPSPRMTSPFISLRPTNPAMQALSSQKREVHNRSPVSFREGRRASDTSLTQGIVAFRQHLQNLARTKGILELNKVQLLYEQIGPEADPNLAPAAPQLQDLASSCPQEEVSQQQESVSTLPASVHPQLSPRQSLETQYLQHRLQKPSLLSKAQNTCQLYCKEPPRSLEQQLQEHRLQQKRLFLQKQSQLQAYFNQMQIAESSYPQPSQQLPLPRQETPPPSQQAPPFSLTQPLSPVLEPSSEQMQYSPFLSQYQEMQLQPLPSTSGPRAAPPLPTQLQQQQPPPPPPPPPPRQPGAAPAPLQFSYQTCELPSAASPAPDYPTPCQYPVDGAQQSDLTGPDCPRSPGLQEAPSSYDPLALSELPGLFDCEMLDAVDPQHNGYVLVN
SRC (human), sequence (P12931 whole entry, looked up): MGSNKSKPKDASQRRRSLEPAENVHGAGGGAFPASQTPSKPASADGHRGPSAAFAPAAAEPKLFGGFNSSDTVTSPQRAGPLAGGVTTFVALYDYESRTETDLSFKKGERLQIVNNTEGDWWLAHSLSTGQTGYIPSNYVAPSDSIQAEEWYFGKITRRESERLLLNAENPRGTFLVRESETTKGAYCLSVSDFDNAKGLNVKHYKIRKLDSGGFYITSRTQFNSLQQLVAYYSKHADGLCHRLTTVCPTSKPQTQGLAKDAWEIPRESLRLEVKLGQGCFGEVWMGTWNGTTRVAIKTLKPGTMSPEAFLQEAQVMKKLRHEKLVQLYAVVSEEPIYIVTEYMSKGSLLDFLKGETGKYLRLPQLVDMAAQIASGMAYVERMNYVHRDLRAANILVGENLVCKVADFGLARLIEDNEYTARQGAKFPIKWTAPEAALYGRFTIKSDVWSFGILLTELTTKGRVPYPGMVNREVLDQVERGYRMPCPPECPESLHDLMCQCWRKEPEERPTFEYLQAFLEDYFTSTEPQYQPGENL
CaMK1 (human), sequence (Q14012 whole entry, looked up): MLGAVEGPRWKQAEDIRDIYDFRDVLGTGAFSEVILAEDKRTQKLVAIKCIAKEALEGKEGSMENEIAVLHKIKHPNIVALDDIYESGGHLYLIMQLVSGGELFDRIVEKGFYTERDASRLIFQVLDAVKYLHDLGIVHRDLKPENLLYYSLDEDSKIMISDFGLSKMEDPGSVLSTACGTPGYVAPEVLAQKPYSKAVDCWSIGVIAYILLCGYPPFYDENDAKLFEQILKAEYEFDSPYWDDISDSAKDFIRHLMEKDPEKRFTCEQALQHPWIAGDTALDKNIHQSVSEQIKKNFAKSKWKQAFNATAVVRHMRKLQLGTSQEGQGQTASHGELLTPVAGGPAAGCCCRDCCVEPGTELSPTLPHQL
MARK3 (human), sequence (P27448 whole entry, looked up): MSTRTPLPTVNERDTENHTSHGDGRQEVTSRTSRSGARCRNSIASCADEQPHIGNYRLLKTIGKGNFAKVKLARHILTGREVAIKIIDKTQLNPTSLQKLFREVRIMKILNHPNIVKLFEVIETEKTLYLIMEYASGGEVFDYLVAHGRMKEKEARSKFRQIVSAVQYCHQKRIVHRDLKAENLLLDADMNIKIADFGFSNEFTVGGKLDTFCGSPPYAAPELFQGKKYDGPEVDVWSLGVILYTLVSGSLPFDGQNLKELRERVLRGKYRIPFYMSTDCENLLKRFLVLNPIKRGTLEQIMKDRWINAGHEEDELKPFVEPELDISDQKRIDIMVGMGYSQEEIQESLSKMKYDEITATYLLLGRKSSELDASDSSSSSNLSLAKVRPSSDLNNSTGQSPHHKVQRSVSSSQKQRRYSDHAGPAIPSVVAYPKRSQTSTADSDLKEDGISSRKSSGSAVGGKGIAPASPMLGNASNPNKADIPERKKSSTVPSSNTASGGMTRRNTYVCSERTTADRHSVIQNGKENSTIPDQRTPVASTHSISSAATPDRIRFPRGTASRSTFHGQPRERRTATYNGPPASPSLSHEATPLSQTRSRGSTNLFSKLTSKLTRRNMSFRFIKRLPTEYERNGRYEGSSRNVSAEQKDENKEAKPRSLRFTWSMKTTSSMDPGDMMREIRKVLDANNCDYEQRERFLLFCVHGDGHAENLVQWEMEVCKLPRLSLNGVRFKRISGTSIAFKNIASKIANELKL
CSNK1G2 (human), sequence (P78368 whole entry, looked up): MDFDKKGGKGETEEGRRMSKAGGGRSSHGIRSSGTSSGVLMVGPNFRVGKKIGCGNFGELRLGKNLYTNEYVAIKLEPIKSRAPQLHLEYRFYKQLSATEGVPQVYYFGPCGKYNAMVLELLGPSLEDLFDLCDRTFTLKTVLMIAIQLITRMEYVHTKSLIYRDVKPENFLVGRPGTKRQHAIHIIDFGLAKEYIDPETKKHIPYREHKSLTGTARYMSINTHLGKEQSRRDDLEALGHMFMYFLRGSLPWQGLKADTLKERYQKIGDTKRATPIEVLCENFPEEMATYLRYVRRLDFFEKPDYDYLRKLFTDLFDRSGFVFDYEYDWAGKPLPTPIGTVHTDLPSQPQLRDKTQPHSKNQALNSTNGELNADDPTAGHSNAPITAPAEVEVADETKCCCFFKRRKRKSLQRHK

Q: Which results are given for `CNc1nc(Nc2ccc(C(=O)N3CCOCC3)cc2OC)ncc1Cl`?
A: residual activity (CDK2 CCNA2 (human); compound 1.0 µM): 82%; residual activity (CDK2 CCNA2 (human); compound 10.0 µM): 65%; residual activity (SIK2 (human); compound 1.0 µM): 49%; residual activity (SIK2 (human); compound 10.0 µM): 47%; residual activity (CDK9 CCNT1 (human); compound 1.0 µM): 89%; residual activity (CDK9 CCNT1 (human); compound 10.0 µM): 83%; residual activity (MARK3 (human); compound 1.0 µM): 91%; residual activity (MARK3 (human); compound 10.0 µM): 78%; residual activity (MAPK9 (human); compound 1.0 µM): 76%; residual activity (MAPK9 (human); compound 10.0 µM): 46%; residual activity (MARK1 (human); compound 1.0 µM): 91%; residual activity (MARK1 (human); compound 10.0 µM): 84%; residual activity (RPS6KA5 KD1 KD2 (human); compound 1.0 µM): 104%; residual activity (RPS6KA5 KD1 KD2 (human); compound 10.0 µM): 84%; residual activity (CaMK1 (human); compound 1.0 µM): 85%; residual activity (CaMK1 (human); compound 10.0 µM): 66%; residual activity (IGF1R (human); compound 1.0 µM): 100%; residual activity (IGF1R (human); compound 10.0 µM): 51%; residual activity (DAPK1 (human); compound 1.0 µM): 61%; residual activity (DAPK1 (human); compound 10.0 µM): 23%; residual activity (IKBKE (human); compound 1.0 µM): 77%; residual activity (IKBKE (human); compound 10.0 µM): 75%; residual activity (PIM3 (human); compound 1.0 µM): 77%; residual activity (PIM3 (human); compound 10.0 µM): 72%; residual activity (SRPK1 (human); compound 1.0 µM): 96%; residual activity (SRPK1 (human); compound 10.0 µM): 94%; residual activity (MELK (human); compound 1.0 µM): 88%; residual activity (MELK (human); compound 10.0 µM): 98%; residual activity (MYLK (human); compound 1.0 µM): 83%; residual activity (MYLK (human); compound 10.0 µM): 55%; residual activity (TTBK2 (human); compound 1.0 µM): 115%; residual activity (TTBK2 (human); compound 10.0 µM): 97%; residual activity (GCK (human); compound 1.0 µM): 108%; residual activity (GCK (human); compound 10.0 µM): 79%; residual activity (PAK7 (human)): 88%; residual activity (CSNK1G2 (human); compound 1.0 µM): 96%; residual activity (CSNK1G2 (human); compound 10.0 µM): 93%; residual activity (SRC (human); compound 1.0 µM): 84%; residual activity (SRC (human); compound 10.0 µM): 79%; residual activity (PRKCG (human); compound 1.0 µM): 93%; residual activity (PRKCG (human); compound 10.0 µM): 108%; residual activity (MAPK14 (human); compound 1.0 µM): 71%; residual activity (MAPK14 (human); compound 10.0 µM): 93%; residual activity (NTRK1 (human)): 87%; residual activity ([1]; compound 1.0 µM): 91%; residual activity ([1]; compound 10.0 µM): 71%; residual activity (NEK2 (human); compound 1.0 µM): 63%; residual activity (NEK2 (human); compound 10.0 µM): 90%; residual activity (FLT1 (human)): 65%; residual activity (DDR2 (human); compound 1.0 µM): 103%; residual activity (DDR2 (human); compound 10.0 µM): 90%; residual activity (PRKCA (human); compound 1.0 µM): 66%; residual activity (PRKCA (human); compound 10.0 µM): 87%; residual activity (PRKCZ (human); compound 1.0 µM): 99%; residual activity (PRKCZ (human); compound 10.0 µM): 101%; residual activity (BTK (human); compound 1.0 µM): 83%; residual activity (BTK (human); compound 10.0 µM): 88%
